Test results: patent US12364213B2, “Container for growth of cryo-sprouts” (RÄ FOODS HOLDINGS LLC, priority 2015, dated 2025)

What was measured:
[1] = tested on: Salmonella, Listeria monocytogenes, and E. coli O157:H7; experiment: Pathogen challenge study, overall impact of soak treatments versus Control; assay type: cell-based; conditions: seed soak treatments; 40° F. and 50° F.
total aerobic bacteria = experiment: Aerobic Plate Count at Shelf Life Day 28 on samples grown at 40° F.; assay type: cell-based
Method: Aerobic Plate Counts were also analyzed at Shelf Life Day 28 on the samples grown at 40° F. by plating to Standard Methods Agar and incubated at 95° F. for 2 days to determine the total aerobic bacteria present in the samples.

Salmonella spp. = Salmonella spp. cocktail challenge on sprouts grown from soaked seeds (MPN and direct plating); assay type: cell-based
Method: (§1) Isolates used to inoculate cryo-sprouts were grown in pure culture and quantitated in order to determine dilutions required to achieve a target level when inoculated into the product.
(§2) The study encompassed three treatments exposed to two different temperatures over the course of 28 days, with weekly pulls, see Table 1 below.
(§3) Initial counts were determined immediately after inoculation for each treatment on Day 0, and again after incubation at 40° F. for 21 days, and 50° F. for 12 days. Subsequent pulls occurred on a weekly basis from Day 0 (after the 21 days at 40° F. or after 12 days at 50° F.) through Day 28.
(§4) The pulls occurred on Shelf Life Day 0, 7, 14, 21, and 28.
(§5) One milliliter from each of the five Salmonella cultures was combined to form a cocktail. The Listeria monocytogenes and E. coli O157:H7 cultures were similarly combined to form a second and third cocktail. These three cocktails were diluted and added to the trays containing 60 ml of deionized water.
(§6) Plastic trays with membrane were filled with 35 grams of soaked sprout seeds representing each of the three treatment groups.
(§7) Sixty milliliters of deionized water was added to each tray along with a final concentration of approximately 1.0 E+3-1.0 E+4 cfu/ml of each of the three cocktails (Salmonella and Listeria together in one set, and E. coli O157:H7 into another set).
(§8) Salmonella samples were serially diluted and spread plated on a Tryptic Soy Agar (TSA) basal layer and capped with XLD, incubated at 95° F. (35° C.) for 2 days. An MPN (Most probable number), consisting of a combination of the three samples, was also set up on each pull day due to the high number of other organisms present in the samples which obscured the direct counts.

E. coli O157:H7 = E. coli O157:H7 cocktail challenge on sprouts grown from soaked seeds (MPN and direct plating); assay type: cell-based
Method: as §1, §2, §3, §4, §5, §6, §7
as §8, with “E. coli O157:H7” for “Salmonella”, “and” for “and spread”, “TSA” for “Tryptic Soy Agar (TSA)”, “EMB,” for “XLD,”, “MPN,” for “MPN (Most probable number),”

L. monocytogenes = L. monocytogenes cocktail challenge on sprouts grown from soaked seeds (MPN and direct plating); assay type: cell-based, Listeria monocytogenes
Method: as §1, §2, §3, §4, §5, §6, §7
as §8, with “Listeria” for “Salmonella”, “and” for “and spread”, “TSA” for “Tryptic Soy Agar (TSA)”, “Modified Oxford Medium (MOX),” for “XLD,”, “MPN,” for “MPN (Most probable number),”

[2] = grown 12 days at 50° F., held at 40° F.
[3] = grown 12 days at 50° F., Shelf Life Day 0
[4] = grown 12 days at 50° F., Shelf Life Day 7 at 40° F.
[5] = grown 12 days at 50° F., Shelf Life Day 14 at 40° F.
[6] = grown 12 days at 50° F., Shelf Life Day 21 at 40° F.
[7] = grown 12 days at 50° F., Shelf Life Day 28 at 40° F.
[8] = grown 21 days at 40° F., held at 40° F. through Shelf Life Day 28, from Day 0 to below detectable limit
[9] = grown 21 days at 40° F., held at 40° F., end of study, below detectable limit
[10] = grown 21 days at 40° F., Shelf Life Day 0 at 40° F.
[11] = grown 21 days at 40° F., Shelf Life Day 7 at 40° F.
[12] = grown 21 days at 40° F., Shelf Life Day 14 at 40° F.
[13] = grown 21 days at 40° F., Shelf Life Day 21 at 40° F.
[14] = grown 21 days at 40° F., Shelf Life Day 28 at 40° F.
[15] = grown 12 days at 50° F., Shelf Life Day 28
[16] = grown 21 days at 40° F., Shelf Life Day 21
[17] = grown 21 days at 40° F., Shelf Life Day 28

## CC(=O)O [Acetic Acid, acetic acid]
[1]
  impact on the counts in comparison to the Control treatment: did not appear to have a significant impact
Total aerobic bacteria
  Aerobic Plate Count, average: 8.1 E+8 cfu/g
  Aerobic Plate Count, avg. log value: 8.91
Salmonella spp.; [2]
  Salmonella spp. counts at each pull date via MPN and plating methods: 1.4-3 logs
Salmonella spp.; [3]
  Log10 (Salmonella MPN/g) or (CFU): 3.04 Log10 MPN/g
  Salmonella (MPN/g) or (CFU): 1,100 MPN/g
Salmonella spp.; [4]
  Log10 (Salmonella MPN/g) or (CFU): 2.63 Log10 MPN/g
  Salmonella (MPN/g) or (CFU): 430 MPN/g
Salmonella spp.; [5]
  Log10 (Salmonella MPN/g) or (CFU): 2.46 Log10 MPN/g
  Salmonella (MPN/g) or (CFU): 290 MPN/g
Salmonella spp.; [6]
  Log10 (Salmonella MPN/g) or (CFU): 2.04 Log10 MPN/g
  Salmonella (MPN/g) or (CFU): 110 MPN/g
Salmonella spp.; [7]
  Log10 (Salmonella MPN/g) or (CFU): 1.63 Log10 MPN/g
  Salmonella (MPN/g) or (CFU): 43 MPN/g
Salmonella spp.; [8]
  Salmonella spp. overall log reduction: 3.87 logs
Salmonella spp.; [9]
  Salmonella spp. level, direct plating: < 10 cfu/g
Salmonella spp.; [10]
  Log10 (Salmonella MPN/g) or (CFU): 2.18 Log10 MPN/g
  Salmonella (MPN/g) or (CFU): 150 MPN/g
Salmonella spp.; [11]
  Log10 (Salmonella MPN/g) or (CFU): 0.96 Log10 MPN/g
  Salmonella (MPN/g) or (CFU): 9.2 MPN/g
Salmonella spp.; [12]
  Log10 (Salmonella MPN/g) or (CFU): <−0.5 Log10 MPN/g
  Salmonella (MPN/g) or (CFU): <0.3 MPN/g
Salmonella spp.; [13]
  Log10 (Salmonella MPN/g) or (CFU): <−0.5 Log10 MPN/g
  Salmonella (MPN/g) or (CFU): <0.3 MPN/g
Salmonella spp.; [14]
  Log10 (Salmonella MPN/g) or (CFU): <−0.5 Log10 MPN/g
  Salmonella (MPN/g) or (CFU): < 0.3 MPN/g
Salmonella spp.; grown 21 days at 40° F., Shelf Life Day 28 at 40° F., listed as Acetic
  Salmonella (MPN/g) or (CFU): <0.3 MPN/g
E. coli O157:H7; [2]
  E. coli O157:H7 avg. log values for each pull day: 3-5 logs
E. coli O157:H7; [3]
  E. coli O157:H7 (MPN/mL) or (CFU): 1,100 MPN/mL
  Log10 (E. coli O157:H7 MPN/g) or (CFU): 3.04 Log10 MPN/g
E. coli O157:H7; [4]
  E. coli O157:H7 (MPN/mL) or (CFU): 110,000 MPN/mL
  Log10 (E. coli O157:H7 MPN/g) or (CFU): 5.04 Log10 MPN/g
E. coli O157:H7; [5]
  E. coli O157:H7 (MPN/mL) or (CFU): 46,000 MPN/mL
  Log10 (E. coli O157:H7 MPN/g) or (CFU): 4.66 Log10 MPN/g
E. coli O157:H7; [6]
  E. coli O157:H7 (MPN/mL) or (CFU): 930 MPN/mL
  Log10 (E. coli O157:H7 MPN/g) or (CFU): 2.97 Log10 MPN/g
E. coli O157:H7; [15]
  E. coli O157:H7 level, MPN method: 2,400 MPN/g
E. coli O157:H7; grown 12 days at 50° F., Shelf Life Day 28, from Day 0 inoculated control
  E. coli O157:H7 overall log reduction, MPN method: 1.73 logs
E. coli O157:H7; [7]
  E. coli O157:H7 (MPN/mL) or (CFU): 2,400 MPN/mL
  Log10 (E. coli O157:H7 MPN/g) or (CFU): 3.38 Log10 MPN/g
E. coli O157:H7; [8]
  E. coli O157:H7 overall log reduction: 4.16 logs
E. coli O157:H7; [9]
  E. coli O157:H7 level, MPN: < 0.3 MPN/g
  E. coli O157:H7 level, direct plating: < 10 cfu/g
E. coli O157:H7; [10]
  E. coli O157:H7 (MPN/mL) or (CFU): <30 MPN/mL
  Log10 (E. coli O157:H7 MPN/g) or (CFU): 0.95 Log10 MPN/g
E. coli O157:H7; [11]
  E. coli O157:H7 (MPN/mL) or (CFU): 9.3 MPN/mL
  Log10 (E. coli O157:H7 MPN/g) or (CFU): 0.97 Log10 MPN/g
E. coli O157:H7; [12]
  E. coli O157:H7 (MPN/mL) or (CFU): 0.30 MPN/mL
  Log10 (E. coli O157:H7 MPN/g) or (CFU): −0.5 Log10 MPN/g
E. coli O157:H7; [13]
  E. coli O157:H7 (MPN/mL) or (CFU): <0.3 MPN/mL
  Log10 (E. coli O157:H7 MPN/g) or (CFU): <−0.5 Log10 MPN/g
E. coli O157:H7; [14]
  E. coli O157:H7 (MPN/mL) or (CFU): <0.3 MPN/mL
  Log10 (E. coli O157:H7 MPN/g) or (CFU): <−0.5 Log10 MPN/g
L. monocytogenes; [2]
  L. monocytogenes increase through Shelf Life Day 21: approximately 2.5 logs
L. monocytogenes; [3]
  L. monocytogenes (MPN/g) or (CFU): > 1,100 MPN/g
  Log10 (L. monocytogenes MPN/g) or (CFU): 3.04 Log10 MPN/g
L. monocytogenes; [4]
  L. monocytogenes (MPN/g) or (CFU): 24,000 MPN/g
  Log10 (L. monocytogenes MPN/g) or (CFU): 4.38 Log10 MPN/g
L. monocytogenes; [5]
  L. monocytogenes (MPN/g) or (CFU): > 110,000 MPN/g
  Log10 (L. monocytogenes MPN/g) or (CFU): 5.04 Log10 MPN/g
L. monocytogenes; grown 12 days at 50° F., Shelf Life Day 21
  L. monocytogenes average, direct plating: 2.1 E+5 cfu/g
L. monocytogenes; [6]
  L. monocytogenes (MPN/g) or (CFU): 2.4 E+5 MPN/g
  Log10 (L. monocytogenes MPN/g) or (CFU): 5.38 Log10 MPN/g
L. monocytogenes; grown 12 days at 50° F., Shelf Life Day 21 at 40° F., listed as Acetic
  L. monocytogenes (MPN/g) or (CFU): 240,000 MPN/g
L. monocytogenes; [15]
  L. monocytogenes log increase, direct plating method: 5.14 logs
L. monocytogenes; grown 12 days at 50° F., Shelf Life Day 28, from inoculated controls
  L. monocytogenes overall log increase, MPN method: 1.82 logs
L. monocytogenes; grown 12 days at 50° F., Shelf Life Day 28, obscured by background flora, possible overestimation
  L. monocytogenes direct counts, avg. log value: 7.95
L. monocytogenes; [7]
  L. monocytogenes (MPN/g) or (CFU): 43,000 MPN/g
  Log10 (L. monocytogenes MPN/g) or (CFU): 4.63 Log10 MPN/g
L. monocytogenes; [10]
  L. monocytogenes (MPN/g) or (CFU): 230 MPN/g
  Log10 (L. monocytogenes MPN/g) or (CFU): 2.36 Log10 MPN/g
L. monocytogenes; [11]
  L. monocytogenes (MPN/g) or (CFU): 4.3 MPN/g
  Log10 (L. monocytogenes MPN/g) or (CFU): 0.63 Log10 MPN/g
L. monocytogenes; grown 21 days at 40° F., Shelf Life Day 14
  L. monocytogenes log increase, direct plating: 1.33 logs
L. monocytogenes; grown 21 days at 40° F., Shelf Life Day 14, 21, and 28
  L. monocytogenes direct plating counts, average: approximately 4 logs
L. monocytogenes; [12]
  L. monocytogenes (MPN/g) or (CFU): > 1,100 MPN/g
  Log10 (L. monocytogenes MPN/g) or (CFU): 3.04 Log10 MPN/g
L. monocytogenes; [16]
  L. monocytogenes direct plating count: 4.04 logs
  L. monocytogenes log increase, direct plating: 1.23 logs
L. monocytogenes; [13]
  L. monocytogenes (MPN/g) or (CFU): 930 MPN/g
  Log10 (L. monocytogenes MPN/g) or (CFU): 2.97 Log10 MPN/g
L. monocytogenes; [17]
  L. monocytogenes direct count log value: 4.50 logs
  L. monocytogenes log increase, direct plating: 1.69 logs
  L. monocytogenes overall log increase, MPN method: > 0.23 logs
L. monocytogenes; [14]
  L. monocytogenes (MPN/g) or (CFU): > 1,100 MPN/g
  Log10 (L. monocytogenes MPN/g) or (CFU): 3.04 Log10 MPN/g
